Literature values, collected in patent US9566312B2, “Cyclic peptides and use as medicines” (priority 2012, dated 2017).

Experiments:
HCV replicon = details: cited from earlier work
hepatitis C virus = details: patients, 1200 mg twice daily; cited from earlier work

Row | Structure (SMILES) | effect on HCV replication (HCV replicon) | mean hepatitis C load (hepatitis C virus)
1 | C=CC[C@@H]1/C=C(\C)C[C@H](C)C[C@H](OC)[C@H]2O[C@@](O)(C(=O)C(=O)N3CCCC[C@H]3C(=O)O[C@H](/C(C)=C/[C@@H]3CC[C@@H](O)[C@H](OC)C3)[C@H](C)[C@@H](O)CC1=O)[C@H](C)C[C@@H]2OC [FK506] | did not have significant effect | 
2 | C/C=C/C[C@@H](C)[C@@H](O)[C@H]1C(=O)N[C@@H](CC)C(=O)N(C)[C@H](C)C(=O)N(CC)[C@@H](C(C)C)C(=O)N[C@@H](C(C)C)C(=O)N(C)[C@@H](CC(C)C)C(=O)N[C@@H](C)C(=O)N[C@H](C)C(=O)N(C)[C@@H](CC(C)C)C(=O)N(C)[C@@H](CC(C)C)C(=O)N(C)[C@@H](C(C)C)C(=O)N1C [DEBIO-025] |  | significantly decreased
